Measured values taken from patent publication US20070048355A1, “Non-irritating solvent-borne polymeric coatings for application to the skin” (priority 2005, published 2007).

Test system: freshly abraided skin on a finger knuckle
Assay: standard sting test on abraded finger knuckle skin
Assay type: in vivo, human
Conditions: for stinging of aliphatic hydrocarbon diluent solvents (in words): neat alkane on abraded skin
Source text: The preparations described above were applied to skin that had been carefully abraided shortly before testing to determine whether the stinging and discomfort caused by collodion application could be suppressed by one or more of these agents. The procedure used was to manually scour a finger knuckle using 100 grit garnet sandpaper just to the point of slight bleeding, and then allowing the skin to rest a minute or so until any discomfort, i.e., sensation of irritation, pain or heat, had disappeared prior to challenging the abrasion with a potential chemical irritant. The resultant stinging sensation was compared to that produced with the unmodified commercial New Skin™ collodion product (the “control”). Sting (also termed and described as “burning sensation”) was rated on a five level scale as follows: (−) no sting, (+/−) barely detectable sting, (+) slight sting, (++) moderate sting, (+++) strong sting. […] This method of testing and scoring the level or magnitude of the stinging sensation is referred to herein as the “sting test” or “standard sting test.”
Using the “standard sting test” described above, and similarly abraded skin on a finger knuckle, individual collodion ingredients were tested neat (undiluted). Accordingly, a droplet or two of the mixture or the chemical ingredient was placed on freshly abraided skin.
Several new chemicals and solvents of potential interest were tested, and others that were formerly tested (all in their neat state) were re-tested using the standard sting test procedure and accompanying scoring system described above. Applicant's strategy behind this testing was to find a true solvent or alternatively, a combination of true solvent and either co-solvent or diluent, that would have sufficient volatility to allow rapid drying of a collodion coating without causing stinging when applied to the skin.

[1] = additional testing and re-testing of chemicals and solvents in their neat state, standard sting test
[2] = individual collodion ingredients tested neat (undiluted), a droplet or two on freshly abraided skin

Compound | LEVEL OF STING [1] | further results
CC(C)=O [Acetone] | +++ | 
CCCCCOC(C)=O [Amyl Acetate (mixed isomers), Amyl Acetate] | +/− | LEVEL OF STING [2]: +/−
CCOC(C)=O [Ethyl Acetate] |  | LEVEL OF STING (in vivo): +++
CCO [Ethyl Alcohol] | +++ | LEVEL OF STING [2]: +++
CC(C)O [Isopropyl Alcohol] | ++ | LEVEL OF STING [2]: ++
CC(=O)OC(C)C [Isopropyl acetate] | + | 
COC(C)=O [Methyl acetate] | +++ | 
CO [Methyl alcohol] | +++ | 
CCC(C)=O [Methyl ethyl ketone] | +++ | 
CC(CO)CO [Methyl propanediol] | + | 
CCCC(C)=O [Methyl propyl ketone] | ++ | 
CC(C)CO [isobutyl alcohol] | + | 
CCCCOC(C)=O [n-Butyl Acetate] | +/− | LEVEL OF STING [2]: +/−
CCCCCCC [n-Heptane] | − | stinging of aliphatic hydrocarbon diluent solvents (in words): none of the aliphatic hydrocarbon diluent solvents that were tested caused any stinging
CCCCCC [n-Hexane] | − | stinging of aliphatic hydrocarbon diluent solvents (in words): none of the aliphatic hydrocarbon diluent solvents that were tested caused any stinging
CCCCCCCC [n-Octane] | − | stinging of aliphatic hydrocarbon diluent solvents (in words): none of the aliphatic hydrocarbon diluent solvents that were tested caused any stinging
CCCOC(C)=O [n-Propyl acetate] | + | 
CCCCCO [n-amyl alcohol] | + | 
CCCCC [n-pentane] |  | stinging of aliphatic hydrocarbon diluent solvents (in words): none of the aliphatic hydrocarbon diluent solvents that were tested caused any stinging
CC(=O)OC(C)(C)C [tert-Butyl acetate] | +/− | 
Castor Oil |  | LEVEL OF STING (in vivo): −
Isohexane (e.g., 2-methyl pentane and other isomers) | − | 
